The source of these data is patent US6008215A, “Benzonaphthyridines as bronchial therapeutics” (Byk Gulden Lomberg Chemische Fabrik GmbH, priority 1996, dated 1999).

Structures can show the parent of a compound that is named as a salt.

Holding throughout (format): biochemical
Experiment [1] addresses PDE3 (Homo sapiens, UniProt Q14432). The experiment is described as follows: Inhibition of PDE isoenzymes: PDE3 (cGMP-inhibited), homogenates of human blood platelets. The following applies: read-out: -log IC50, PDE3 (converted). The method, then: (§1) The PDE activity was determined according to Thompson et al. (1) with some modifications (2). The test samples contained 40 mM tris HCl (pH 7.4), 5 mM MgCl2, 0.5 μM cAMP or cGMP, [^3 H] cAMP or [^3 H]cGMP (about 50,000 cpm/sample), the PDE isoenzyme-specific additions described in greater detail below, the indicated concentrations of inhibitor and an aliquot of the enzyme solution in a total sample volume of 200 μl. […] After preincubation at 37° C. for 5 minutes, the reaction was started by addition of the substrate (cAMP or cGMP). The samples were incubated at 37° C. for a further 15 min. The reaction was terminated by addition of 50 μl of 0.2N HCl. After cooling on ice for 10 minutes and addition of 25 μg of 5'-nucleotidase (snake venom from Crotalus atrox), the mixture was again incubated at 37° C. for 10 min and the samples were then applied to QAE Sephadex A-25 columns. The columns were eluted with 2 ml of 30 mM ammonium formate (pH 6.0). The radioactivity of the eluate was measured and corrected by the corresponding blank values. The proportion of hydrolyzed nucleotide in no case exceeded 20% of the original substrate concentration.
PDE3 (cGMP-inhibited) and PDE5 (cGMP-specific) were investigated in homogenates of human blood platelets [Schudt et al. (4)] using cAMP or cGMP as a substrate.
(§2) The IC50 values were determined from the concentration-inhibition curves by nonlinear regression using the GraphPad InPlot™ program (GraphPad Software Inc., Philadelphia, U.S.A.).
In Table 1 below, the inhibitory concentrations determined according to Section A1 [inhibitory concentrations as -log IC50 (mol/l)] for the compounds according to the invention are indicated for various PDE isoenzymes. The numbers of the compounds correspond to the numbers of the examples.

Experiment [2] addresses PDE4. The experiment is described as follows: Inhibition of PDE isoenzymes: PDE4 (cAMP-specific), cytosol of human polymorphonuclear leukocytes. The following applies: PDE4, cytosol of human PMNL, cAMP as substrate, motapizone (1 μM) present.
Experiment [3] deals with PDE1. The experiment is described as follows: Inhibition of PDE isoenzymes: PDE1 (Ca^2+/calmodulin-dependent) from bovine brain. The conditions noted are these: Ca^2+ (1 mM), calmodulin (100 nM), cGMP as substrate.
The target in experiment [4] is T1, PDE5 (Homo sapiens, UniProt O76074).
T1 construct: were investigated in homogenates of human blood platelets; from tissue; host or cells: human blood platelets, homogenate
The experiment is described as follows: Inhibition of PDE isoenzymes: PDE5 (cGMP-specific), homogenates of human blood platelets. The following applies: read-out: -log IC50, PDE5 (converted). The method, then: as §1, with “The columns were eluted with 2 ml of 30 mM ammonium formate (pH 6.0).” left out, “The proportion of hydrolyzed nucleotide in no case exceeded 20% of the original substrate concentration.” left out
as §2
(§3) In Table 1 below, the inhibitory concentrations determined according to Section A1 [inhibitory concentrations as -log IC50 (mol/l)] for the compounds according to the invention are indicated for various PDE isoenzymes. […]

Experiment [5] has as its target T2, PDE2 (Rattus norvegicus, UniProt Q01062).
T2 construct: from rat hearts was purified chromatographically; from tissue; host or cells: rat heart, chromatographically purified
T2 sequence (Q01062 1-928): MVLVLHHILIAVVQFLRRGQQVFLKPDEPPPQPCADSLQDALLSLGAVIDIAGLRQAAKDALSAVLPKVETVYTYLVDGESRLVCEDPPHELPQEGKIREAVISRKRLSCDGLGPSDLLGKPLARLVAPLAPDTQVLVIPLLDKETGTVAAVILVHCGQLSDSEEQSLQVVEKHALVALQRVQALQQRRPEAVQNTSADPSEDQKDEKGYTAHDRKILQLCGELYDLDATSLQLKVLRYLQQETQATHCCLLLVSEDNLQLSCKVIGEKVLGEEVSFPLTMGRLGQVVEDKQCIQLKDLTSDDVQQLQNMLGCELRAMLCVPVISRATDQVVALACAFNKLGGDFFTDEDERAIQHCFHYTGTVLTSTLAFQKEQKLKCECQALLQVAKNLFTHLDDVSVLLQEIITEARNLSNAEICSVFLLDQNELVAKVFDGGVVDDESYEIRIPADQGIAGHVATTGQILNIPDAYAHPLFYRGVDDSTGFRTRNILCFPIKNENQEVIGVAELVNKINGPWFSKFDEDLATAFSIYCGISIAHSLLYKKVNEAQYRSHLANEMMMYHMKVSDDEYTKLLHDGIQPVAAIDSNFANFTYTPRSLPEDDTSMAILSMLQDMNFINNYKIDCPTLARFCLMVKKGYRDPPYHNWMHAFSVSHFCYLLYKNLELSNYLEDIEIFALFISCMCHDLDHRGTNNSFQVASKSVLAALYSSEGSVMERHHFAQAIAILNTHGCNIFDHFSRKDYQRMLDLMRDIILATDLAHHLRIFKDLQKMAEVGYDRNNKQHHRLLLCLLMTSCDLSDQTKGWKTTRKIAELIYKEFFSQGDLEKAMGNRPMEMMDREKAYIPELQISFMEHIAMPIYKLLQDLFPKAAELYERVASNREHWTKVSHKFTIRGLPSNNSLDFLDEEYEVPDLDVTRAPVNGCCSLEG
The experiment is described as follows: Inhibition of PDE isoenzymes: PDE2 (cGMP-stimulated) from rat hearts. The conditions noted are these: cGMP (5 μM), cAMP as substrate, read-out: -log IC50, PDE2 (converted). The procedure:
as §1, with “The columns were eluted with 2 ml of 30 mM ammonium formate (pH 6.0).” left out, “The proportion of hydrolyzed nucleotide in no case exceeded 20% of the original substrate concentration.” left out
as §2, §3

PDE3, sequence (Q14432 whole entry): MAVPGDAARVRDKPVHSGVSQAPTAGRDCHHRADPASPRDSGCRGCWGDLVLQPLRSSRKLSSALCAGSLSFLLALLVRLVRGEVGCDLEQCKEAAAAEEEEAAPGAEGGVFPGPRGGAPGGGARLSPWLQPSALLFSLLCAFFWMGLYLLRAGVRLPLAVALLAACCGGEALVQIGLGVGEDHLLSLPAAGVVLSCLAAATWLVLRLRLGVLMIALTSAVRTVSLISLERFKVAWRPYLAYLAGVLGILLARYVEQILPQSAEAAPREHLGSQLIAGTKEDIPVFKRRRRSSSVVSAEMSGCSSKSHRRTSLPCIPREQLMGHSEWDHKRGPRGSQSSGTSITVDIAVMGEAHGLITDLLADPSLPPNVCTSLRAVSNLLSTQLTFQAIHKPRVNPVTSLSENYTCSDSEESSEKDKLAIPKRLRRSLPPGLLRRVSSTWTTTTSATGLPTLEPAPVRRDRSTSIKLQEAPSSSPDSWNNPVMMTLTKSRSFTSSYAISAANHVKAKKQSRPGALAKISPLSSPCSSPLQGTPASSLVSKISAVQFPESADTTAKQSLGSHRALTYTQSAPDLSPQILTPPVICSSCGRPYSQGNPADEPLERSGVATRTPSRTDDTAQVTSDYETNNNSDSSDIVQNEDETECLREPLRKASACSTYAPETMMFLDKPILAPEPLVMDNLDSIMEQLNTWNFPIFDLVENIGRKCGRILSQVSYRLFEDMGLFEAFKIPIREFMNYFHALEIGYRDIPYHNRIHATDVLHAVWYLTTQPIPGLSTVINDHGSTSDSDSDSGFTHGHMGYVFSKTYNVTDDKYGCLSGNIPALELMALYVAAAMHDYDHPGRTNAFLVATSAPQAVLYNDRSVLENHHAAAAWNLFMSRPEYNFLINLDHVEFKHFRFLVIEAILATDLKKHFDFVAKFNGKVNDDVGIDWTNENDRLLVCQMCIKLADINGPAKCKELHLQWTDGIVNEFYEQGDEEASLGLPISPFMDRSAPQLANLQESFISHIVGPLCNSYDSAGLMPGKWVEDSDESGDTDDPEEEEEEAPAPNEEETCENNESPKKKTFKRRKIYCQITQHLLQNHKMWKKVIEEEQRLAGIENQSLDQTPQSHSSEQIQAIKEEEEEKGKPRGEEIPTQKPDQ

As usually defined, the IC50 is the point on the concentration scale where inhibition reaches its midpoint. In the case of `CCOc1cc2c(cc1OCC)[C@@H]1CN(C)CC[C@@H]1N=C2c1ccc(C(=O)N2CCCCCC2)cc1.Cl` (single isomer, unassigned) [Compound 18, (-)-cis-8,9-Diethoxy-6-[4-(hexahydroazepin-1-yl-carbonyl)phenyl]-2-methyl-1,2,3,4,4a,10b-hexahydrobenzo[c][1,6]naphthyridine hydrochloride], in experiment [1], the IC50 was 0.182 µM. Besides, the “-log IC50, PDE4” value in experiment [2] was 7.87.
As for `CCOc1cc2c(cc1OCC)[C@@H]1CN(C)CC[C@@H]1N=C2c1ccc(C(=O)OC)cc1.Cl` (single isomer, unassigned) [Compound 4, (-)-cis-8,9-Diethoxy-6-(4-methoxycarbonylphenyl)-2-methyl-1,2,3,4,4a,10b-hexahydrobenzo[c][1,6]naphthyridine hydrochloride], the “-log IC50, PDE1” value in experiment [3] is given as < 4 -log(mol/l). The IC50 is 0.214 µM in experiment [1], 3.55 µM in experiment [4] and 15.8 µM in experiment [5]. For the same compound, the “-log IC50, PDE4” value in experiment [2] was 7.54.
For the compound `CCOc1cc2c(cc1OCC)[C@@H]1CN(C)CC[C@@H]1N=C2c1ccc(C(=O)OC(C)C)cc1.Cl` (single isomer, unassigned) [Compound 5, (-)-cis-8,9-Diethoxy-6-(4-isopropoxycarbonylphenyl)-2-methyl-1,2,3,4,4a,10b-hexahydrobenzo[c][1,6]naphthyridine hydrochloride], in experiment [1], the IC50 was 0.0708 µM. For the same compound, the “-log IC50, PDE4” value in experiment [2] is given as 7.75.
On the same counts, the results for `CCOc1cc2c(cc1OC)C(c1ccc(C(=O)OC)cc1)=N[C@H]1CCN(C)C[C@@H]21.Cl` (single isomer, unassigned) [Compound 21, (-)-cis-9-Ethoxy-8-methoxy-6-(4-methoxycarbonylphenyl)-2-methyl-1,2,3,4,4a,10b-hexahydrobenzo[c][1,6]naphthyridine hydrochloride] are 0.457 µM and 7.67.
Regarding `CCOc1cc2c(cc1OC)C(c1ccc(C(=O)N3CCCCCC3)cc1)=N[C@H]1CCN(C)C[C@@H]21` (single isomer, unassigned) [Compound 24, (-)-cis-9-Ethoxy-8-methoxy-6-[4-(hexahydroazepin-1-yl-carbonyl)phenyl]-2-methyl-1,2,3,4,4a,10b-hexahydrobenzo[c][1,6]naphthyridine], in experiment [1], the IC50 is 0.0229 µM. For the same compound, the “-log IC50, PDE4” value in experiment [2] is 8.51.
`CCCCN(CCCC)C(=O)c1ccc(C2=N[C@H]3CCN(C)C[C@H]3c3cc(OCC)c(OCC)cc32)cc1.Cl` (single isomer, unassigned) [Compound 17, (+)-cis-8,9-Diethoxy-6-(4-dibutylaminocarbonylphenyl)-2-methyl-1,2,3,4,4a,10b-hexahydrobenzo[c][1,6]naphthyridine hydrochloride]: in experiment [1], the IC50 was 0.417 µM. For the same compound, in experiment [2], the “-log IC50, PDE4” value is reported as 7.94.
Regarding `CCOc1cc2c(cc1OCC)[C@H]1CN(C)CC[C@H]1N=C2c1ccc(C(=O)N(C(C)C)C2CCCCC2)cc1` (single isomer, unassigned) [Compound 16, (+)-cis-8,9-Diethoxy-6-(4-N-cyclohexyl-N-isopropylaminocarbonylphenyl)-2-methyl-1,2,3,4,4a,10b-hexahydrobenzo[c][1,6]naphthyridine hydrochloride], the IC50 in experiment [1] is 0.186 µM. Also, in experiment [2], the “-log IC50, PDE4” value was 7.96.
Consider `COc1cc2c(cc1OC)[C@H]1CN(C)CC[C@H]1N=C2c1ccc(C(=O)OC(C)C)cc1` (single isomer, unassigned) [Compound 3, (-)-cis-8,9-Dimethoxy-6-(4-isoropoxycarbonylphenyl)-2-methyl-1,2,3,4,4a,10b-hexahydrobenzo[c][1,6]naphthyridine hydrochloride], for which the IC50 in experiment [1] is 0.0724 µM. Further, the “-log IC50, PDE4” value in experiment [2] is listed as 6.45.
Consider `CCOc1cc2c(cc1OC)C(c1ccc(C(=O)N(C(C)C)C(C)C)cc1)=N[C@H]1CCN(C)C[C@@H]21.Cl` (single isomer, unassigned) [Compound 19, (-)-cis-9-Ethoxy-8-methoxy-6-(4-diisopropylaminocarbonylphenyl)-2-methyl-1,2,3,4,4a,10b-hexahydrobenzo[c][1,6]naphthyridine hydrochloride], for which the IC50 in experiment [1] is 0.0275 µM. Also, the “-log IC50, PDE4” value in experiment [2] is 8.18.
On the same counts, the results for `CCOc1cc2c(cc1OCC)[C@H]1CN(C)CC[C@H]1N=C2c1ccc(C(=O)N(C(C)C)C(C)C)cc1` (single isomer, unassigned) [Compound 11, (-)-cis-8,9-Diethoxy-6-(4-diisopropylaminocarbonylphenyl-2-methyl-1,2,3,4,4a,10b-hexahydrobenzo[c][1,6]naphthyridine hydrochloride] are 0.0589 µM and 7.85.
On the same counts, the results for `CCCCN(CCCC)C(=O)c1ccc(C2=N[C@H]3CCN(C)C[C@H]3c3cc(OCC)c(OC)cc32)cc1.Cl` (single isomer, unassigned) [Compound 23, (-)-cis-9-Ethoxy-8-methoxy-6-(4-dibutylaminocarbonylphenyl)-2-methyl-1,2,3,4,4a,10b-hexahydrobenzo[c][1,6]naphthyridine hydrochloride] are 0.229 µM and 8.56.
